Source: PMC6154694, “Absorption, Metabolic Stability, and Pharmacokinetics of Ginger Phytochemicals” (Molecules : A Journal of Synthetic Chemistry and Natural …, 2017)

How the values were obtained:
[1] = Mouse pharmacokinetic study of oral GE with and without ketoconazole, plasma with and without β-glucuronidase treatment; type: in vivo, male mice (C57BL6J); conditions: for Concentration Ratio (Total/Free) of GE Phenolics: GE administered group; for Concentration Ratio (Total/Free) of GE Phenolics / concentration at 0 h / concentration at 0.087 h / concentration at 0.167 h / concentration at 0.25 h / concentration at 0.5 h / concentration at 1 h / concentration at 2 h / concentration at 3 h / concentration at 4 h / concentration at 6 h / concentration at 8 h / concentration at 12 h: mouse plasma; for concentration at 0 h / concentration at 0.087 h / concentration at 0.167 h / concentration at 0.25 h / concentration at 0.5 h / concentration at 1 h / concentration at 2 h / concentration at 3 h / concentration at 4 h / concentration at 6 h / concentration at 8 h / concentration at 12 h: −βgd
Procedure: A solution formulation of GE was prepared by using 5% ethanol, 5% Tween 80, 40% polyethylene glycol, and 50% corn oil. The dose volume was 10 mL/kg and the dose administered was 250 mg/kg GE.
Pharmacokinetic study in male mice (C57BL6J, Harlan Laboratories, Indianapolis, IN, USA) was run with 36 animals in each group at a GE dose of 250 mg/kg with a dose volume of 10 mL/kg. One group was given GE alone and in the second group GE was co-administered with KTZ (50 mg/kg). A terminal sampling design was used to collect blood samples at 0 (pre-dose), 0.08, 0.16, 0.25, 0.5, 1, 2, 3, 4, 6, 8, and 12 h. At each time, 1 mL of blood was collected in ethylenediaminetetraacetic acid di-potassium salt (K2EDTA) tubes (BD Biosciences, Franklin Lakes, NJ, USA). Plasma was separated by centrifugation of samples at 4000 rpm for 10 min and stored below −60 °C till bioanalysis. All experiments were performed with approval from the Institutional Animal Care and Use Committee (IACUC, approval code: A14031). All animals were acclimatized for five days before dosing in the experimental area. Food and water was provided ad libitum throughout the study period. Animals were marked and housed (three per cage, n = 36 per group) in polypropylene cages and maintained in controlled environmental conditions with 12 h light and dark cycles. The temperature and humidity of the room was maintained between 22 ± 3 °C and 30% to 50%, respectively, and approximately 10–12 fresh air change cycles per hour.
To confirm the presence of GE glucuronide conjugates, plasma (100 μL) was treated with βgd (20 μL, 500 units) and incubated at 37 °C for 1 h. Each sample was analyzed twice with and without β-gd treatment. Samples without gde treatment were diluted with 20 μL of buffer. Total (conjugated + free) and free ginger phenolics data were reported following bioanalysis.
All in vitro and in vivo samples were processed by protein precipitation method. An aliquot (100 μL) of the sample was spiked with 200 μL of acetonitrile containing dihydrocapsaicin as internal standard (IS) and vortex mixed for 3 min. The tubes were centrifuged at 12,000 rpm for 10 min and an aliquot of supernatant was transferred into autosampler vials for analysis. The stock solutions of 6G, 8G, 10G, and 6S were prepared in ACN/water (70:30) at 1 mg/mL. A calibration curve (CC) range of 2–2000 ng/mL was employed for the quantification of analytes and IS concentration was 150 ng/mL for each analysis. The CC consisted of blank, blank with IS and seven non-zero calibration standards. The calibration standards were within ±15% of the nominal concentration and lower limit of quantification was within ±20% of nominal. All samples were analyzed using liquid chromatography tandem mass spectrometry (LC-MS/MS) method (Agilent 6410 series, Santa Clara, CA, USA). A positive ionization mode with multiple reaction monitoring (MRM, m/z Q1/Q3) of 6G (m/z 277.1/177.1, retention time (RT) 2.0 min), 8G (m/z 305.1/177.1, RT 4.0 min), 10G (m/z 333.1/177.1, RT 7.7 min), 6S (m/z 277.1/137.1, RT 5.1 min), and IS (m/z 308.2/137.1, RT 3.4 min) was employed. The ion spray voltage was set at 3500 V, ionization temperature was set to 300 °C and drying gas flow rate was 10 L/min. Data acquisition and quantitation were performed using Mass Hunter software (Agilent Technologies, Wilmington, DE, USA). Separation was achieved using HP1100 series LC (Agilent Technologies) with an Agilent Zorbax reversed-phase (SB-C18, 2.1 × 50 mm, 5.0 μm) column. A gradient method was employed to separate the individual GE phenolics using mobile phase A (0.1% formic acid in water) and mobile phase B (Acetonitrile). The gradient elution method with 50% B at 0 min, 90% B at 5 min, held for 2.1 min, back to 50% B at 7.1 min with a flow rate of 0.2 mL/min. An injection volume of 2 μL was used for analysis. […]

[2] = Liver microsomal stability, mouse; type: in vitro ADME, CD1 mouse; conditions: protein 0.5 mg/mL
Procedure: (§1) Pooled liver microsomes from CD1 mouse, IGS Sprague-Dawley rat, Beagle dog, and mixed gender human were used for assays. Incubations (1 mL) consisted of liver microsomes (0.5 mg/mL), NADPH (1 mM) and 100 mM sodium phosphate buffer (pH 7.4). Following pre-incubation (10 min, 37 °C), reactions were initiated by spiking ACN/DMSO (80:20) stock solutions of GE phenolics (5 μL, 10 μM). Samples (100 μL) were withdrawn at 0, 5, 10, 15, 20 and 30 min and quenched with 200 μL acetonitrile containing internal standard. Concomitant NADPH-free control incubations were prepared similarly.

[3] = Liver microsomal stability, statements across species; type: in vitro ADME; conditions: CD1 (mouse), IGS Sprague-Dawley (rat), Beagle (dog), human, pooled liver microsomes, pH 7.4
Procedure: as §1

[4] = male, C57BL6J, mouse, plasma, po, 250 mg/kg, mouse, 250 mg/kg GE + 50 mg/kg KTZ oral, +KTZ −βgd

AUClast Ratio ([1]; +KTZ +βgd, reference GE group co-administered with KTZ untreated with βgd): 23
AUClast Ratio ([1]; +KTZ +βgd, reference GE group untreated with βgd): 1330
AUClast Ratio ([1]; +KTZ −βgd, reference GE group untreated with βgd): 59
Concentration Ratio (Total/Free) of GE Phenolics ([1]; 0 h): 0
Concentration Ratio (Total/Free) of GE Phenolics ([1]; 0.087 h): 532
Concentration Ratio (Total/Free) of GE Phenolics ([1]; 0.167 h): 439
Concentration Ratio (Total/Free) of GE Phenolics ([1]; 0.25 h): 653
Concentration Ratio (Total/Free) of GE Phenolics ([1]; 0.5 h): 948
Concentration Ratio (Total/Free) of GE Phenolics ([1]; 1 h): 16
Concentration Ratio (Total/Free) of GE Phenolics ([1]; 2 h): 44
Concentration Ratio (Total/Free) of GE Phenolics ([1]; 3 h): 29
Concentration Ratio (Total/Free) of GE Phenolics ([1]; 4 h): 14
Concentration Ratio (Total/Free) of GE Phenolics ([1]; 6 h): 23
Concentration Ratio (Total/Free) of GE Phenolics ([1]; 8 h): 0
Concentration Ratio (Total/Free) of GE Phenolics ([1]; 12 h): 0
AUC(0-t) [1, 4]: 59.1 ng·h/mL
Cmax [1, 4]: 45.7 ng/mL
Tmax [1, 4]: 30 min
concentration at 0 h ([1]; male, C57BL6J, 250 mg/kg GE oral, 0 h): 0 ng/mL
concentration at 0.087 h ([1]; male, C57BL6J, 250 mg/kg GE oral, 0.087 h): 0.58 ± 0.45 ng/mL
concentration at 0.167 h ([1]; male, C57BL6J, 250 mg/kg GE oral, 0.167 h): 0.2 ± 0.14 ng/mL
concentration at 0.25 h ([1]; male, C57BL6J, 250 mg/kg GE oral, 0.25 h): 0.11 ± 0.05 ng/mL
concentration at 0.5 h ([1]; male, C57BL6J, 250 mg/kg GE oral, 0.5 h): 0.23 ± 0.08 ng/mL
concentration at 1 h ([1]; male, C57BL6J, 250 mg/kg GE oral, 1 h): 0.42 ± 0.42 ng/mL
concentration at 2 h ([1]; male, C57BL6J, 250 mg/kg GE oral, 2 h): 0.43 ± 0.11 ng/mL
concentration at 3 h ([1]; male, C57BL6J, 250 mg/kg GE oral, 3 h): 0.81 ± 0.66 ng/mL
concentration at 4 h ([1]; male, C57BL6J, 250 mg/kg GE oral, 4 h): 0.51 ± 0.33 ng/mL
concentration at 6 h ([1]; male, C57BL6J, 250 mg/kg GE oral, 6 h): 0.49 ± 0.3 ng/mL
concentration at 8 h ([1]; male, C57BL6J, 250 mg/kg GE oral, 8 h): 0.57 ± 0.23 ng/mL
concentration at 12 h ([1]; male, C57BL6J, 250 mg/kg GE oral, 12 h): 0.1 ± 0.05 ng/mL
concentration at 0 h ([1]; male, C57BL6J, 250 mg/kg GE with 50 mg/kg ketoconazole oral, 0 h): 0 ng/mL
concentration at 0.087 h ([1]; male, C57BL6J, 250 mg/kg GE with 50 mg/kg ketoconazole oral, 0.087 h): 0.48 ± 0.2 ng/mL
concentration at 0.167 h ([1]; male, C57BL6J, 250 mg/kg GE with 50 mg/kg ketoconazole oral, 0.167 h): 0.63 ± 0.12 ng/mL
concentration at 0.25 h ([1]; male, C57BL6J, 250 mg/kg GE with 50 mg/kg ketoconazole oral, 0.25 h): 6.93 ± 9.15 ng/mL
concentration at 0.5 h ([1]; male, C57BL6J, 250 mg/kg GE with 50 mg/kg ketoconazole oral, 0.5 h): 7560 ng/mL
concentration at 1 h ([1]; male, C57BL6J, 250 mg/kg GE with 50 mg/kg ketoconazole oral, 1 h): 17.9 ± 19.1 ng/mL
concentration at 2 h ([1]; male, C57BL6J, 250 mg/kg GE with 50 mg/kg ketoconazole oral, 2 h): 16300 ng/mL
concentration at 3 h ([1]; male, C57BL6J, 250 mg/kg GE with 50 mg/kg ketoconazole oral, 3 h): 11.7 ± 7.35 ng/mL
concentration at 4 h ([1]; male, C57BL6J, 250 mg/kg GE with 50 mg/kg ketoconazole oral, 4 h): 2.25 ± 1.56 ng/mL
concentration at 6 h ([1]; male, C57BL6J, 250 mg/kg GE with 50 mg/kg ketoconazole oral, 6 h): 3.71 ± 2.18 ng/mL
concentration at 8 h ([1]; male, C57BL6J, 250 mg/kg GE with 50 mg/kg ketoconazole oral, 8 h): 1.17 ± 0.11 ng/mL
concentration at 12 h ([1]; male, C57BL6J, 250 mg/kg GE with 50 mg/kg ketoconazole oral, 12 h): 0.67 ± 0.17 ng/mL
remaining at 0.5 h, 10 µM ([2]; CD1, pooled liver microsomes, pH 7.4, substrate 10 µM, n = 2, read-out: % Remaining at 30 min): 3%
Intrinsic Clearance ([2]; mouse liver microsomes, substrate 10 µM, 45 mg protein/g liver): 15.1 mL/min/g Liver
half-life at 10 µM [3]: < 30 min
Structure (SMILES): CCCCCCCC(O)CC(=O)CCc1ccc(O)c(OC)c1 (stereo not drawn) [8G, 8-gingerol]
